Results: ChEMBL document CHEMBL4368904 (J Med Chem, 2019)

Columns and labels:
Adenosine receptor A2a [1] = molecular target: T1, Adenosine receptor A2a (Homo sapiens, UniProt P29274); assay: Displacement of [3H]2-[p-(2-carboxyethyl)phenylethylamino]-5-N-ethylcarboxamidoadenosine from human A2A adenosine receptor expressed in HEK293 cell membranes at 10 uM after 60 mins by scintillation proximity assay relative to adenosine 5-N-ethyluronamide
[2] = molecular target: Adenosine receptor A2a (Mus musculus) (UniProt Q60613); assay: Displacement of [3H]2-[p-(2-carboxyethyl)phenylethylamino]-5-N-ethylcarboxamidoadenosine from mouse A2A adenosine receptor expressed in HEK293 cell membranes at 10 uM after 60 mins by scintillation proximity assay relative to adenosine 5-N-ethyluronamide
Chain of Adenosine receptor A2a (Mus musculus) (Q60613 whole entry): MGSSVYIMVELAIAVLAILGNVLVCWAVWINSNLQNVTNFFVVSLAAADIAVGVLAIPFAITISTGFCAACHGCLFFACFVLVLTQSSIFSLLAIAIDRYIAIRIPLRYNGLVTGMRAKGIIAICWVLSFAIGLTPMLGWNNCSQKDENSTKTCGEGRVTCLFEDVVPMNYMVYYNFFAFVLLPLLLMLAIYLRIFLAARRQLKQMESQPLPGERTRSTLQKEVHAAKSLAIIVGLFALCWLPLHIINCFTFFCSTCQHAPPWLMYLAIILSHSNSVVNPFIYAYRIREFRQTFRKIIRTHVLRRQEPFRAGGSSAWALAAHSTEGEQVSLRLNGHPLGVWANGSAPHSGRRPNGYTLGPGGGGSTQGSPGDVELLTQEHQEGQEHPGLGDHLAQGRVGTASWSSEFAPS

[3] = molecular target: T2, Adenosine receptor A1 (Mus musculus) (UniProt Q60612); assay: Agonist activity at mouse A1A adenosine receptor at 10 uM after 60 mins by [35S]GTPgammaS binding assay relative to (2S,3S,4R,5R)-5-(6-amino-9H-purin-9-yl)-N-ethyl-3,4-dihydroxytetrahydrofuran-2-carboxamide; format: functional
T2 sequence (whole entry): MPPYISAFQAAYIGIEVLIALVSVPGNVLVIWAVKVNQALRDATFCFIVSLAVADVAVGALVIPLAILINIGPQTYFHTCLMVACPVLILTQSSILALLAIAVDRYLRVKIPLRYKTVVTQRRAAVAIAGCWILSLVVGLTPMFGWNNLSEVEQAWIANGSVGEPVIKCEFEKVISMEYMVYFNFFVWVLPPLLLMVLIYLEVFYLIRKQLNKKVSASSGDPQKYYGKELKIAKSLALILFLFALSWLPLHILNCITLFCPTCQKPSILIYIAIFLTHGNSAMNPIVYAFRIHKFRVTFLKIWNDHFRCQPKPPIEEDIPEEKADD

[4] = molecular target: T3, Adenosine receptor A3 (Mus musculus) (UniProt Q61618); assay: Agonist activity at mouse A3AR adenosine receptor at 10 uM after 60 mins by [35S]GTPgammaS binding assay relative to (2S,3S,4R,5R)-5-(6-amino-9H-purin-9-yl)-N-ethyl-3,4-dihydroxytetrahydrofuran-2-carboxamide; format: functional
T3 sequence (whole entry): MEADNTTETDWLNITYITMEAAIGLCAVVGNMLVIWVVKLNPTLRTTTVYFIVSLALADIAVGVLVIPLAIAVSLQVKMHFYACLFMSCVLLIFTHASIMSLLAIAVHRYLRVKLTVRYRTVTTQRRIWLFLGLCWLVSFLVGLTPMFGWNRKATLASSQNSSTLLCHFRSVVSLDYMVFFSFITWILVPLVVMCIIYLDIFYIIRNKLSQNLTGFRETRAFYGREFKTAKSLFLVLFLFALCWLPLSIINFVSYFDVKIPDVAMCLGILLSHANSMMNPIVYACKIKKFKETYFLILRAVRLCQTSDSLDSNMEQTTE

Mus musculus [5] = organism: Mus musculus; assay: Selectivity index, ratio of Ki for mouse A3A adenosine receptor to Ki for mouse A1A adenosine receptor expressed in CHO cell membranes after 60 mins by scintillation proximity assay
Mus musculus [6] = assay: Induction of hypothermia in C57BL/6J mouse assessed as body temperature at 3 mg/kg, ip measured at 60 mins post dose (reference value: 36.3 +/- 0.8 degC); format: functional
Mus musculus [7] = assay: Induction of hypothermia in C57BL/6J mouse assessed as activity counts at 3 mg/kg, ip measured at 60 mins post dose (reference value: 15.5 +/- 5.5); format: functional
[8] = Fraction unbound in human plasma at 10 uM; format: ADME, cell-free
[9] = Fraction unbound in mouse plasma at 10 uM; format: ADME, cell-free
[10] = Fraction unbound in rat plasma at 10 uM; format: ADME, cell-free
[11] = molecular target: T4, Adenosine receptor A3 (Homo sapiens) (UniProt P0DMS8); assay: Displacement of [125I]N6-(4-amino-3-iodobenzyl)adenosine-5-N-methyluronamide from human A3A adenosine receptor expressed in CHO cell membranes at 10 uM after 60 mins by scintillation proximity assay relative to adenosine 5-N-ethyluronamide
T4 sequence (whole entry): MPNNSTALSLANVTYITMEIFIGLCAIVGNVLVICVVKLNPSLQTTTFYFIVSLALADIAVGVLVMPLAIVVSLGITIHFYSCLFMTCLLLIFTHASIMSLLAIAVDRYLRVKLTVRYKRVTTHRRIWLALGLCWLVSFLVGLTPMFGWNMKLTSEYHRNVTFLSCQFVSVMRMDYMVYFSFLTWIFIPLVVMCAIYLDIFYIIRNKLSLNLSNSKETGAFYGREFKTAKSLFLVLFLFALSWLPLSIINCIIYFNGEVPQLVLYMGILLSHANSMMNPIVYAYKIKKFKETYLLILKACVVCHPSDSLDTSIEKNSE

[12] = molecular target: T3, Adenosine receptor A3 (Mus musculus); assay: Displacement of [125I]N6-(4-amino-3-iodobenzyl)adenosine-5-N-methyluronamide from mouse A3A adenosine receptor expressed in CHO cell membranes at 10 uM after 60 mins by scintillation proximity assay relative to adenosine 5-N-ethyluronamide
Adenosine receptor A1 [13] = molecular target: T5, Adenosine receptor A1 (Mus musculus, UniProt Q60612); assay: Displacement of [3H]N6-R-phenylisopropyladenosine from mouse A1A adenosine receptor expressed in CHO cell membranes after 60 mins by scintillation proximity assay
T5 sequence (Q60612 whole entry): T2 sequence (whole entry)

Adenosine receptor A3 [14] = molecular target: T6, Adenosine receptor A3 (Mus musculus, UniProt Q61618); assay: Displacement of [125I]N6-(4-amino-3-iodobenzyl)adenosine-5-N-methyluronamide from mouse A3A adenosine receptor expressed in CHO cell membranes after 60 mins by scintillation proximity assay
T6 sequence (Q61618 whole entry): T3 sequence (whole entry)

[15] = molecular target: Sigma intracellular receptor 2 (Homo sapiens, UniProt Q5BJF2); assay: Inhibition of sigma receptor 2 (unknown origin)
Chain of Sigma intracellular receptor 2 (Q5BJF2 whole entry): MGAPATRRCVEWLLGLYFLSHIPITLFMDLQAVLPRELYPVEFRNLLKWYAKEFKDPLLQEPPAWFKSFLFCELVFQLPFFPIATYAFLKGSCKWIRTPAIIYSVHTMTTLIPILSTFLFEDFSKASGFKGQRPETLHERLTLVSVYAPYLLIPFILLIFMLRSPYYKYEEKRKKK

Translocator protein = Translocator protein (Homo sapiens, UniProt P30536); assay: Inhibition of TSPO (unknown origin)
Chain of Translocator protein (P30536 whole entry): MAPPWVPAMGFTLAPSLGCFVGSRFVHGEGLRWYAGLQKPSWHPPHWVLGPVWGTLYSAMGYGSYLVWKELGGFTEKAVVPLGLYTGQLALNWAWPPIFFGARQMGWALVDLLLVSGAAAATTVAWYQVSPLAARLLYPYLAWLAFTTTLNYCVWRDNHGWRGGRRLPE

Mus musculus [16] = assay: Induction of hypothermia in C57BL/6J mouse assessed as body temperature at 10 mg/kg, ip measured at 60 mins post dose (reference value: 36.3 +/- 0.8 degC); format: functional
Mus musculus [17] = assay: Induction of hypothermia in C57BL/6J mouse assessed as activity counts at 10 mg/kg, ip measured at 60 mins post dose (reference value: 15.5 +/- 5.5); format: functional
[18] = molecular target: T7, 5-hydroxytryptamine receptor 2C (Homo sapiens, UniProt P28335); assay: Inhibition of 5HT2C (unknown origin)
T7 sequence (P28335 whole entry): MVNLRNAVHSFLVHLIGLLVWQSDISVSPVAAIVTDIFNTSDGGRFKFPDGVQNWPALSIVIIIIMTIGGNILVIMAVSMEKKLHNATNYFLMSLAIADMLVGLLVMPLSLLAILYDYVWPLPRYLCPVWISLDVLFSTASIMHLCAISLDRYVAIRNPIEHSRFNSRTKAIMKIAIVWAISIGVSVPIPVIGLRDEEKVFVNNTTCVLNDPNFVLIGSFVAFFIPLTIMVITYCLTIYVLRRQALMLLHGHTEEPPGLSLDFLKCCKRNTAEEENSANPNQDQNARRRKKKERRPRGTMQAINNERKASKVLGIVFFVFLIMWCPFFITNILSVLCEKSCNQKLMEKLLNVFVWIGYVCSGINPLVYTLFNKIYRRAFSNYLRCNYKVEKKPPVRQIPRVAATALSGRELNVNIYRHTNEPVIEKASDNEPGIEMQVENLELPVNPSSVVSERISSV

[19] = molecular target: Sigma non-opioid intracellular receptor 1 (Homo sapiens, UniProt Q99720); assay: Inhibition of sigma receptor 1 (unknown origin)
Chain of Sigma non-opioid intracellular receptor 1 (Q99720 whole entry): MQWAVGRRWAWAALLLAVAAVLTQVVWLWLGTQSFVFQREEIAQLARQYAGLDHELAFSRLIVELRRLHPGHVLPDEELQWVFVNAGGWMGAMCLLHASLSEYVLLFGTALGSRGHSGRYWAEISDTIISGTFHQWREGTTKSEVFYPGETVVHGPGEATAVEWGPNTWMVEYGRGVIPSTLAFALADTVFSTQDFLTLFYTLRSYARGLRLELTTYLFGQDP

Adenosine receptor A1 [20] = molecular target: T8, Adenosine receptor A1 (Homo sapiens, UniProt P30542); assay: Displacement of [3H]N6-R-phenylisopropyladenosine from human A1A adenosine receptor expressed in CHO cell membranes after 60 mins by scintillation proximity assay
T8 sequence (P30542 whole entry): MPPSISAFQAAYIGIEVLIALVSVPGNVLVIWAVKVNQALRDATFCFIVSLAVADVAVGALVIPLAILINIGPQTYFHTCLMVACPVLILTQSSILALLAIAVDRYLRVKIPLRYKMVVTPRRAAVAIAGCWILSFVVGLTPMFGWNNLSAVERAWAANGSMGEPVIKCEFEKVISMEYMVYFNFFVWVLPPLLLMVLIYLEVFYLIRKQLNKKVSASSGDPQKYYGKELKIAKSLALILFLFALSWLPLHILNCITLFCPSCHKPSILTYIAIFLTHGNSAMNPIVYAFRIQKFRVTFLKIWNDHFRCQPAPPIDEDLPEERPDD

Adenosine receptor A2a [21] = molecular target: T1, Adenosine receptor A2a; assay: Displacement of [3H]2-[p-(2-carboxyethyl)phenylethylamino]-5-N-ethylcarboxamidoadenosine from human A2A adenosine receptor expressed in HEK293 cell membranes after 60 mins by scintillation proximity assay
Adenosine receptor A3 [22] = molecular target: T9, Adenosine receptor A3 (Homo sapiens, UniProt P0DMS8); assay: Displacement of [125I]N6-(4-amino-3-iodobenzyl)adenosine-5-N-methyluronamide from human A3A adenosine receptor expressed in CHO cell membranes after 60 mins by scintillation proximity assay
T9 sequence (P0DMS8 whole entry): T4 sequence (whole entry)

T1 sequence (P29274 whole entry): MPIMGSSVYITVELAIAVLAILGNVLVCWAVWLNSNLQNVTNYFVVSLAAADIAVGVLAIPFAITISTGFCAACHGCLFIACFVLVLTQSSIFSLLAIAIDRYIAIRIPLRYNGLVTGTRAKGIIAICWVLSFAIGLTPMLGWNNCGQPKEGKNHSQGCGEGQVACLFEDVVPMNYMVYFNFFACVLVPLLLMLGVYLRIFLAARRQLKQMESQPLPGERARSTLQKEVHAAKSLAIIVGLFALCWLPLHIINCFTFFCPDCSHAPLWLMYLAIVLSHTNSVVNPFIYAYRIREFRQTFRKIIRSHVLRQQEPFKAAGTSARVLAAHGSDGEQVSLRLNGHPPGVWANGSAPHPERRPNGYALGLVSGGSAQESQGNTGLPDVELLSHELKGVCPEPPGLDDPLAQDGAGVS

With `O[C@H]1[C@H](n2cnc3c(N[C@H]4C[C@H]5CC[C@@H]4C5)nc(Cl)nc32)[C@H]2C[C@@]2(CCl)[C@H]1O` the inhibition (Adenosine receptor A2a [1]) was 54%, the inhibition [2] was 15% and the Emax [3] was 123%. The Emax [4] was 50%, the Ratio Ki (Mus musculus [5]) was 270 and the T (Mus musculus [6]) was 36.6 °C. The Activity (Mus musculus [7]) was 16.8, the Fu [8] was 4.04% and the Fu [9] was 2.95%. It also gave a Fu [10] of 2.53%.

Work on `NC(=O)c1ncn([C@@H]2O[C@H](CO)[C@@H](O)[C@H]2O)n1` yielded an inhibition (Adenosine receptor A2a [1]) of 23%, an inhibition [11] of 16% and an inhibition [12] of 0%.

`O=C(NCCO)[C@@]12C[C@@H]1[C@@H](n1cnc3c(N[C@H]4C[C@H]5CC[C@@H]4C5)nc(Cl)nc31)[C@H](O)[C@@H]2O` gave an inhibition [2] of 23%.

For `OC[C@H]1O[C@@H](n2cnc3c(N[C@H]4C[C@H]5CC[C@@H]4C5)ncnc32)[C@H](O)[C@@H]1O`, the Ki (Adenosine receptor A1 [13]) was 0.14 nM and the Ki (Adenosine receptor A3 [14]) was 424 nM.

`O[C@H]1[C@H](n2cnc3c(NC(C4CCC4)C4CCC4)nc(Cl)nc32)[C@H]2C[C@@]2(CCl)[C@H]1O` gave an inhibition (Adenosine receptor A2a [1]) of 17%, an inhibition [2] of 20% and a Ki [15] of 349 nM. The Ki (Translocator protein) was 2890 nM, the T (Mus musculus [16]) was 36.5 °C and the Activity (Mus musculus [17]) was 18.9.

`O[C@@H]1[C@H](O)[C@@H]2C[C@@H]2[C@H]1n1cnc2c(NC(C3CCCC3)C3CCCC3)nc(Cl)nc21` showed a Ki [18] of 2920 nM, a Ki [15] of 2010 nM and a Ki [19] of 5090 nM.

`O[C@@H]1[C@H](O)[C@@H](CSc2ccccc2F)O[C@H]1n1cnc2c(N[C@@H]3CCC[C@H]3O)ncnc21` [GS-9667] showed a Ki (Adenosine receptor A1 [20]) of 12 nM and a Ki (Adenosine receptor A2a [21]) greater than 10000 nM.

In the case of `OC[C@H]1O[C@@H](n2cnc3c(NC(C4CCC4)C4CCC4)nc(Cl)nc32)[C@H](O)[C@@H]1O`, the Emax [3] is reported as 90%, the Emax [4] is reported as 63% and the Ratio Ki (Mus musculus [5]) is reported as 1000. For the same compound, the T (Mus musculus [6]) was 35.5 °C, the Activity (Mus musculus [7]) was 13.5 and the Fu [8] was 5.81%. The Fu [9] was 4.74% and the Fu [10] was 4.64%.

`Nc1nc(Cl)nc2c1ncn2[C@H]1[C@H](O)[C@H](O)[C@]2(CCl)C[C@H]12` gave a Ki (Adenosine receptor A1 [20]) of 7.61 nM, a Ki (Adenosine receptor A2a [21]) of 1750 nM and a Ki (Adenosine receptor A3 [22]) of 253 nM. The Ki [15] was 2550 nM and the Ki [19] was 1970 nM.

For `CCOC(=O)[C@@]12C[C@@H]1[C@@H](n1cnc3c(NC(C4CC4)C4CC4)nc(Cl)nc31)[C@H](O)[C@@H]2O`, the Ki [18] was 54 nM.
